Results from PubChem BioAssay AID248 (DTP/NCI, 2004).
“And” between values parts separate entries of the source, which are not always exact repeats. Identical values can stand only once. Inconclusive results and toxic doses are left out. No stated cut-off is given here; in the data, active means T/C of 150% or more; inactive means T/C below 125%.

Tested on: L1210 leukemia ip in BDF1 mice, survival T/C
Assay: NCI In Vivo Anticancer Drug Screen. Data for tumor model L1210 Leukemia (intraperitoneal) in B6D2F1 (BDF1) mice
Details: endpoint: mean survival time, higher = longer survival
Outline: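 Read-out is survival time, reported as the treated-group measurement over the vehicle-control measurement.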

[1] = dose: 100.0 mg/kg/injection, schedule: Q04DX003 (ip), vehicle: saline
[2] = dose: 100.0 mg/kg/injection, schedule: Q01DX001 (ip), vehicle: saline with Tween-80
[3] = dose: 200.0 mg/kg/injection, schedule: Q01DX001 (ip), vehicle: saline with Tween-80
[4] = dose: 400.0 mg/kg/injection, schedule: Q01DX001 (ip), vehicle: saline with Tween-80
[5] = dose: 12.5 mg/kg/injection, schedule: Q04DX003 (ip), vehicle: saline
[6] = dose: 100.0 mg/kg/injection, schedule: Q04DX003 (ip), vehicle: saline with Tween-80
[7] = dose: 100.0 mg/kg/injection, schedule: Q01DX001 (ip), vehicle: Klucel (hydroxypropylcellulose) (HPC)
[8] = dose: 100.0 mg/kg/injection, schedule: Q01DX009 (ip), vehicle: Klucel (hydroxypropylcellulose) (HPC)
[9] = dose: 100.0 mg/kg/injection, schedule: Q04DX003 (ip), vehicle: Klucel (hydroxypropylcellulose) (HPC)
[10] = dose: 200.0 mg/kg/injection, schedule: Q01DX001 (ip), vehicle: Klucel (hydroxypropylcellulose) (HPC)
[11] = dose: 200.0 mg/kg/injection, schedule: Q01DX009 (ip), vehicle: Klucel (hydroxypropylcellulose) (HPC)
[12] = dose: 200.0 mg/kg/injection, schedule: Q04DX003 (ip), vehicle: Klucel (hydroxypropylcellulose) (HPC)
[13] = dose: 400.0 mg/kg/injection, schedule: Q01DX001 (ip), vehicle: Klucel (hydroxypropylcellulose) (HPC)
[14] = dose: 400.0 mg/kg/injection, schedule: Q01DX009 (ip), vehicle: Klucel (hydroxypropylcellulose) (HPC)
[15] = dose: 400.0 mg/kg/injection, schedule: Q04DX003 (ip), vehicle: Klucel (hydroxypropylcellulose) (HPC)
[16] = dose: 100.0 mg/kg/injection, schedule: Q01DX009 (ip), vehicle: saline with Tween-80
[17] = dose: 200.0 mg/kg/injection, schedule: Q01DX009 (ip), vehicle: saline with Tween-80
[18] = dose: 400.0 mg/kg/injection, schedule: Q01DX009 (ip), vehicle: saline with Tween-80
[19] = dose: 100.0 mg/kg/injection, schedule: Q01DX001 (ip), vehicle: saline
[20] = dose: 200.0 mg/kg/injection, schedule: Q01DX001 (ip), vehicle: saline
[21] = dose: 400.0 mg/kg/injection, schedule: Q01DX001 (ip), vehicle: saline
[22] = dose: 200.0 mg/kg/injection, schedule: Q04DX003 (ip), vehicle: saline with Tween-80
[23] = dose: 400.0 mg/kg/injection, schedule: Q04DX003 (ip), vehicle: saline with Tween-80

Measured: T/C

[NH-]C(CCC(N)=O)C(=O)O.[NH-]C(CCC(N)=O)C(=O)O.[Pd+2] (stereo unspecified)
inactive: dose: 100.0 mg/kg/injection, schedule: Q04DX002 (ip), vehicle: saline 102 % of control | [1] 98 % of control | dose: 200.0 mg/kg/injection, schedule: Q04DX002 (ip), vehicle: saline 102 % of control | dose: 200.0 mg/kg/injection, schedule: Q04DX003 (ip), vehicle: saline 92 % of control | dose: 400.0 mg/kg/injection, schedule: Q04DX002 (ip), vehicle: saline 102 % of control

Cc1c(/C=N/N(CCO)CCO)[nH]c(=O)[nH]c1=O
inactive: [2] 103 % of control | [3] 103 % of control | [4] 98 % of control

O=C1CC2(CCCCC2)CO1
inactive: dose: 0.78 mg/kg/injection, schedule: Q04DX003 (ip), vehicle: saline 100 % of control | dose: 1.56 mg/kg/injection, schedule: Q04DX003 (ip), vehicle: saline 100 % of control | dose: 3.12 mg/kg/injection, schedule: Q04DX003 (ip), vehicle: saline 103 % of control | dose: 6.25 mg/kg/injection, schedule: Q04DX003 (ip), vehicle: saline 103 % of control | [5] 92 % of control

O=C(O)c1cccc(C(=O)O)[n+]1[O-]
inactive: dose: 50.0 mg/kg/injection, schedule: Q04DX002 (ip), vehicle: Klucel (hydroxypropylcellulose) (HPC) 101 % of control | dose: 100.0 mg/kg/injection, schedule: Q04DX002 (ip), vehicle: Klucel (hydroxypropylcellulose) (HPC) 95 % of control

COc1cccc(C(=O)C=C(C(F)(F)F)C(F)(F)F)c1
inactive: dose: 25.0 mg/kg/injection, schedule: Q04DX003 (ip), vehicle: saline with Tween-80 95 % of control | dose: 50.0 mg/kg/injection, schedule: Q04DX003 (ip), vehicle: saline with Tween-80 97 % of control | [6] 94 % of control

COC(=O)C1C2C=CC(C2=C(c2ccccc2)c2ccccc2)C1C(=O)OC (stereo unspecified)
inactive: [7] 98 % of control | [8] 96 % of control | [9] 107 % of control | [10] 97 % of control | [11] 102 % of control | [12] 100 % of control | [13] 92 % of control | [14] 96 % of control | [15] 100 % of control

Cc1ccc(-n2c(O)c(C=N)c(=O)n(-c3ccc(C)cc3)c2=O)cc1
inactive: [16] 98 % of control | [17] 98 % of control | [18] 95 % of control

Cc1ccc(NC(=O)COc2ccc(Cl)cc2)c([N+](=O)[O-])c1
inactive: [8] 101 % of control | [9] 88 % of control | [11] 101 % of control | [12] 90 % of control | [14] 91 % of control | [15] 88 % of control

Cn1cc(C(=O)O)c(=O)c2ccc(/C=C/c3ccc([N+](=O)[O-])o3)nc21
inactive: [19] 92 % of control | [20] 101 % of control | [21] 103 % of control

COc1ccc(C2CCc3cc(OC)c(OC)cc3C2NC=O)cc1OC (stereo unspecified)
inactive: dose: 40.0 mg/kg/injection, schedule: Q01DX009 (ip), vehicle: saline with Tween-80 90 % of control | dose: 80.0 mg/kg/injection, schedule: Q01DX009 (ip), vehicle: saline with Tween-80 102 % of control | dose: 120.0 mg/kg/injection, schedule: Q01DX009 (ip), vehicle: saline with Tween-80 93 % of control | dose: 240.0 mg/kg/injection, schedule: Q01DX009 (ip), vehicle: saline with Tween-80 90 % of control | dose: 360.0 mg/kg/injection, schedule: Q01DX009 (ip), vehicle: saline with Tween-80 87 % of control

CCN(CC)CCNC(=O)c1c2c(nc3ccccc13)CCCC2
inactive: [19] 103 % of control | [20] 102 % of control | [21] 98 % of control

COC(=O)CC(=O)OCC1C=CCC=C1
inactive: [6] 106 % of control | [22] 95 % of control | [23] 92 % of control

C/C(=C/c1c(C)cc(C)c(NC(=O)c2ccc([N+](=O)[O-])cc2)c1C)CBr
inactive: [7] 93 % of control | [9] 97 % of control | [10] 102 % of control | [12] 92 % of control | [13] 96 % of control | [15] 92 % of control

Cn1[nH]c(NC=O)c2cc3c(=O)[nH]c(=O)cc3nc21
inactive: [7] 93 % of control | [10] 90 % of control

CN1CCC(C=C2c3ccccc3CCc3ccccc32)C1 (stereo unspecified)
inactive: dose: 3.12 mg/kg/injection, schedule: Q01DX009 (ip), vehicle: saline 100 % of control | dose: 6.25 mg/kg/injection, schedule: Q01DX009 (ip), vehicle: saline 92 % of control | dose: 12.5 mg/kg/injection, schedule: Q01DX009 (ip), vehicle: saline 100 % of control | dose: 25.0 mg/kg/injection, schedule: Q01DX009 (ip), vehicle: saline 98 % of control

ClC1=C(Cl)C(Cl)(C2(Cl)C(Cl)=C(Cl)C(Cl)=C2Cl)C(Cl)=C1Cl
inactive: [8] 93 % of control | [11] 102 % of control | [14] 95 % of control

COc1cc2c(c3ccccc13)CCCC2=O
inactive: [6] 103 % of control | [22] 93 % of control | [23] 92 % of control

O=C(Nc1ccccc1[N+](=O)[O-])OCCOc1ccccc1
inactive: [2] 98 % of control | [16] 103 % of control and 90 % of control | dose: 100.0 mg/kg/injection, schedule: Q04DX002 (ip), vehicle: saline with Tween-80 93 % of control and 95 % of control | [6] 97 % of control | [3] 91 % of control | [17] 100 % of control and 92 % of control | dose: 200.0 mg/kg/injection, schedule: Q04DX002 (ip), vehicle: saline with Tween-80 98 % of control and 100 % of control | [22] 103 % of control | [4] 93 % of control | [18] 93 % of control and 90 % of control | dose: 400.0 mg/kg/injection, schedule: Q04DX002 (ip), vehicle: saline with Tween-80 104 % of control and 92 % of control | [23] 105 % of control

CCC1C(=O)OCc2c1c(Br)cn(C)c2=O (stereo unspecified)
inactive: [5] 98 % of control | dose: 12.5 mg/kg/injection, schedule: Q04DX003 (oral), vehicle: saline with Tween-80 100 % of control | dose: 25.0 mg/kg/injection, schedule: Q01DX001 (ip), vehicle: saline with Tween-80 101 % of control | dose: 25.0 mg/kg/injection, schedule: Q04DX003 (ip), vehicle: saline 97 % of control | dose: 25.0 mg/kg/injection, schedule: Q04DX003 (oral), vehicle: saline with Tween-80 100 % of control | dose: 50.0 mg/kg/injection, schedule: Q01DX001 (ip), vehicle: saline with Tween-80 93 % of control | dose: 50.0 mg/kg/injection, schedule: Q04DX003 (ip), vehicle: saline 108 % of control | dose: 50.0 mg/kg/injection, schedule: Q04DX003 (oral), vehicle: saline with Tween-80 104 % of control | [2] 97 % of control | [1] 93 % of control | dose: 100.0 mg/kg/injection, schedule: Q04DX003 (oral), vehicle: saline with Tween-80 96 % of control | [3] 101 % of control

Cc1ccc(Cl)cc1NS(=O)(=O)c1ccccc1[N+](=O)[O-]
inactive: [8] 93 % of control | [11] 93 % of control | [14] 96 % of control

CN(C)c1ccc(C=C(Cl)Cl)cc1
inactive: dose: 50.0 mg/kg/injection, schedule: Q01DX005 (ip), vehicle: other 108 % of control | dose: 50.0 mg/kg/injection, schedule: Q01DX009 (ip), vehicle: other 96 % of control | dose: 100.0 mg/kg/injection, schedule: Q01DX005 (ip), vehicle: other 108 % of control | dose: 100.0 mg/kg/injection, schedule: Q01DX009 (ip), vehicle: other 107 % of control | dose: 200.0 mg/kg/injection, schedule: Q01DX005 (ip), vehicle: other 112 % of control | dose: 200.0 mg/kg/injection, schedule: Q01DX009 (ip), vehicle: other 100 % of control
